Assay results published in the supplement of paper PMC10307832.

Legend:
Assay in all cases: relative viability (nuclei count vs DMSO), 5 days (fraction); higher = more cells survive
[1] = compound: COc1cc2c(Oc3ccc4[nH]c(C)cc4c3F)ncnc2cc1OCCCN1CCCC1 [Cediranib] + CCNC(=O)c1noc(-c2cc(C(C)C)c(O)cc2O)c1-c1ccc(CN2CCOCC2)cc1 [Luminespib] (partner 0.01 µM)
Summary of the method: (§1)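 Values are medians from duplicate plates. Each reflects relative viability, defined as the nuclei count of treated wells over that of vehicle wells. Lung cancer cell lines in 1536-well plates were pin-tool dosed one day after seeding with one drug alone or with a fixed anchor-drug dose plus five library-drug doses (not always all listed) in √10 steps, then fixed, stained and imaged at 4× after 5 days.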

[2] = compound: COc1cc2c(Oc3ccc4[nH]c(C)cc4c3F)ncnc2cc1OCCCN1CCCC1 [Cediranib] + Nc1nc2[nH]cc(CCc3ccc(C(=O)N[C@@H](CCC(=O)O)C(=O)O)cc3)c2c(=O)[nH]1 [Pemetrexed] (partner 0.2 µM)
Summary of the method: as §1

[3] = compound: Nc1ncn([C@H]2C[C@H](O)[C@@H](CO)O2)c(=O)n1 [Decitabine] + CC(C)C[C@H](NC(=O)[C@H](Cc1ccccc1)NC(=O)c1cnccn1)B(O)O [Bortezomib] (partner 0.002 µM)
Summary of the method: as §1

[4] = compound: O=C(C[C@H]1NCCC[C@@H]1O)Cn1cnc2cc(Br)c(Cl)cc2c1=O (racemic) [Halofuginone] + CC1(C)CCC(c2ccc(Cl)cc2)=C(CN2CCN(c3ccc(C(=O)NS(=O)(=O)c4ccc(N[C@H](CCN5CCOCC5)CSc5ccccc5)c(S(=O)(=O)C(F)(F)F)c4)cc3)CC2)C1 [Navitoclax] (partner 0.5 µM)
Summary of the method: as §1

Row | Cell Line | relative viability ([1]; first compound 0.04 µM) | relative viability ([1]; first compound 0.1265 µM) | relative viability ([1]; first compound 0.4 µM) | relative viability ([1]; first compound 1.265 µM) | relative viability ([1]; first compound 4 µM) | relative viability ([2]; first compound 0.04 µM) | relative viability ([2]; first compound 0.4 µM) | relative viability ([2]; first compound 1.265 µM) | relative viability ([2]; first compound 4 µM) | relative viability ([3]; first compound 0.1265 µM) | relative viability ([3]; first compound 0.4 µM) | relative viability ([3]; first compound 1.265 µM) | relative viability ([3]; first compound 4 µM) | relative viability ([4]; first compound 0.001 µM) | relative viability ([4]; first compound 0.003162 µM) | relative viability ([4]; first compound 0.01 µM) | relative viability ([4]; first compound 0.03162 µM) | relative viability ([4]; first compound 0.1 µM) | relative viability ([2]; first compound 0.1265 µM) | relative viability ([3]; first compound 0.04 µM)
1 | PC-3 [JPC-3] | 0.649 | 0.654 | 0.665 | 0.735 | 0.449 | 1.03 | 1.08 | 1.17 | 0.96 | 0.6 | 0.458 | 0.462 | 0.389 | 0.8 | 0.792 | 0.805 | 0.768 | 0.73 | – | –
2 | PC-14 | 0.137 | 0.16 | 0.154 | 0.108 | 0.119 | 0.0843 | 0.13 | 0.131 | 0.146 | 0.507 | 0.369 | 0.221 | 0.168 | 1.07 | 0.941 | 0.963 | 0.572 | 0.154 | 0.143 | 0.35
3 | RERF-LC-KJ | 1.39 | 1.15 | 1.27 | 1.25 | 1.25 | 0.488 | 0.444 | 0.514 | 0.479 | 0.931 | 0.525 | 0.824 | 0.779 | 0.987 | 1.11 | 1.05 | 0.905 | 0.699 | 0.346 | 1.05
4 | SK-LU-1 | 0.203 | 0.195 | 0.183 | 0.203 | 0.194 | 1.11 | 0.969 | 0.956 | 1.18 | 0.849 | 0.251 | 0.516 | 0.503 | 0.821 | 0.895 | 0.874 | 1.42 | 0.275 | 1.01 | 0.781
5 | SW 1573 | 0.347 | 0.324 | 0.256 | 0.21 | 0.24 | 0.981 | 0.844 | 0.826 | 0.908 | 0.895 | 0.99 | 0.575 | 0.382 | 1.03 | 1.01 | 0.921 | 0.6 | 0.168 | 0.954 | 0.969
